PubChem BioAssay AID1259407 (Chemical Carcinogenesis Research Information System (CCRIS), 2018)
Active and inactive are the calls of the source. No rule for the calls is given here.

Tested on: CCRIS mutagenicity, Ames/micronucleus/aberration tests
Assay: CCRIS mutagenicity studies

## Cn1c(N)nc2c3cccnc3ccc21
End Point: IN VIVO MICRONUCLEUS, Test System: BONE MARROW POLYCHROMATIC ERYTHROCYTES, Species: MOUSE, Strain/Sex: BALB/C/MALE, Route: IP INJECTION
  mutagenic call: inactive; negative
Test System: AMES SALMONELLA TYPHIMURIUM, Strain/Indicator: RAT, LIVER, MICROSOMES, Metabolic Activation: TA98, Method: PREINCUBATION
  mutagenic call: active; positive
Test System: AMES SALMONELLA TYPHIMURIUM, Strain/Indicator: RAT, LIVER, S-9, Metabolic Activation: TA98, Method: PREINCUBATION
  mutagenic call: active; positive
Test System: AMES SALMONELLA TYPHIMURIUM, Strain/Indicator: TA98 (1,8-DNP6), Metabolic Activation: RAT, LIVER, S-9, AROCLOR, Method: PREINCUBATION
  mutagenic call: inactive; negative
Test System: AMES SALMONELLA TYPHIMURIUM, Strain/Indicator: TA98(1,8-DNP6), Metabolic Activation: RAT, LIVER, S-9, Method: STANDARD PLATE
  mutagenic call: inactive; negative
Test System: AMES SALMONELLA TYPHIMURIUM, Strain/Indicator: TA98, Metabolic Activation: CYNOMOLGUS MONKEY, LIVER, MICROSOMES, Method: PREINCUBATION
  mutagenic call: active; positive
Test System: AMES SALMONELLA TYPHIMURIUM, Strain/Indicator: TA98, Metabolic Activation: CYNOMOLOGUS MONKEY, LIVER, MICROSOMES, 2,3,7,8-TETRACHLORODIBENZO-P-DIOXIN, Method: PREINCUBATION
  mutagenic call: active; positive
Test System: AMES SALMONELLA TYPHIMURIUM, Strain/Indicator: TA98, Metabolic Activation: CYNOMOLOGUS MONKEY, LIVER, MICROSOMES, 2-AMINO-3-METHYLIMIDAZO[4,5-F]QUINOLINE, Method: PREINCUBATION
  mutagenic call: active; positive
Test System: AMES SALMONELLA TYPHIMURIUM, Strain/Indicator: TA98, Metabolic Activation: CYNOMOLOGUS MONKEY, LIVER, MICROSOMES, RIFAMPICIN, Method: PREINCUBATION
  mutagenic call: active; positive
Test System: AMES SALMONELLA TYPHIMURIUM, Strain/Indicator: TA98, Metabolic Activation: HAMSTER, LIVER, S-9, AROCLOR 1254, Method: PREINCUBATION
  mutagenic call: active; positive
Test System: AMES SALMONELLA TYPHIMURIUM, Strain/Indicator: TA98, Metabolic Activation: HAMSTER, LIVER, S-9, Method: PREINCUBATION
  mutagenic call: active; positive
Test System: AMES SALMONELLA TYPHIMURIUM, Strain/Indicator: TA98, Metabolic Activation: HUMAN, BLOOD, CYTOSOL, Method: PREINCUBATION
  mutagenic call: active; positive
Test System: AMES SALMONELLA TYPHIMURIUM, Strain/Indicator: TA98, Metabolic Activation: HUMAN, LIVER, MICROSOMES, Method: PREINCUBATION
  mutagenic call: active; positive
Test System: AMES SALMONELLA TYPHIMURIUM, Strain/Indicator: TA98, Metabolic Activation: MONKEY, LIVER, MICROSOMES, Method: PREINCUBATION
  mutagenic call: active; positive
Test System: AMES SALMONELLA TYPHIMURIUM, Strain/Indicator: TA98, Metabolic Activation: MONKEY, LIVER, S-9, Method: PREINCUBATION
  mutagenic call: active; positive
Test System: AMES SALMONELLA TYPHIMURIUM, Strain/Indicator: TA98, Metabolic Activation: MOUSE, LIVER, HEPATOCYTES
  mutagenic call: active; positive
Test System: AMES SALMONELLA TYPHIMURIUM, Strain/Indicator: TA98, Metabolic Activation: MOUSE, LIVER, HEPATOCYTES, 2,3,7,8-TETRACHLORODIBENZO-P-DIOXIN
  mutagenic call: active; positive
Test System: AMES SALMONELLA TYPHIMURIUM, Strain/Indicator: TA98, Metabolic Activation: MOUSE, LIVER, MICROSOMES
  mutagenic call: active; positive
Test System: AMES SALMONELLA TYPHIMURIUM, Strain/Indicator: TA98, Metabolic Activation: MOUSE, LIVER, MICROSOMES, 2,3,7,8-TETRACHLORODIBENZO-P-DIOXIN
  mutagenic call: active; positive
Test System: AMES SALMONELLA TYPHIMURIUM, Strain/Indicator: TA98, Metabolic Activation: MOUSE, LIVER, MICROSOMES, TCDD, Method: STANDARD PLATE
  mutagenic call: active; positive
Test System: AMES SALMONELLA TYPHIMURIUM, Strain/Indicator: TA98, Metabolic Activation: MOUSE, LIVER, MICROSOMES, Method: STANDARD PLATE
  mutagenic call: active; positive
Test System: AMES SALMONELLA TYPHIMURIUM, Strain/Indicator: TA98, Metabolic Activation: MOUSE, LIVER, S-9, Method: PREINCUBATION
  mutagenic call: active; positive
Test System: AMES SALMONELLA TYPHIMURIUM, Strain/Indicator: TA98, Metabolic Activation: NONE, Method: PREINCUBATION
  mutagenic call: inactive; negative
Test System: AMES SALMONELLA TYPHIMURIUM, Strain/Indicator: TA98, Metabolic Activation: NONE, Method: STANDARD PLATE
  mutagenic call: inactive; negative
Test System: AMES SALMONELLA TYPHIMURIUM, Strain/Indicator: TA98, Metabolic Activation: PATAS MONKEY, LIVER, MICROSOMES, Method: PREINCUBATION
  mutagenic call: active; positive
Test System: AMES SALMONELLA TYPHIMURIUM, Strain/Indicator: TA98, Metabolic Activation: RAT LIVER, CYTOSOL, AROCLOR 1254, Method: STANDARD PLATE
  mutagenic call: inactive; negative
Test System: AMES SALMONELLA TYPHIMURIUM, Strain/Indicator: TA98, Metabolic Activation: RAT LIVER, MICROSOMES, AROCLOR 1254, Method: STANDARD PLATE
  mutagenic call: active; positive
Test System: AMES SALMONELLA TYPHIMURIUM, Strain/Indicator: TA98, Metabolic Activation: RAT, LIVER, HEPATOCYTES, AROCLOR 1254, Method: PREINCUBATION
  mutagenic call: active; positive
Test System: AMES SALMONELLA TYPHIMURIUM, Strain/Indicator: TA98, Metabolic Activation: RAT, LIVER, HEPATOCYTES, Method: PREINCUBATION
  mutagenic call: active; positive
Test System: AMES SALMONELLA TYPHIMURIUM, Strain/Indicator: TA98, Metabolic Activation: RAT, LIVER, MICROSOMES, Method: PREINCUBATION
  mutagenic call: active; positive
Test System: AMES SALMONELLA TYPHIMURIUM, Strain/Indicator: TA98, Metabolic Activation: RAT, LIVER, S-9, 3-METHYLCHOLANTHRENE, Method: PREINCUBATION
  mutagenic call: active; positive
Test System: AMES SALMONELLA TYPHIMURIUM, Strain/Indicator: TA98, Metabolic Activation: RAT, LIVER, S-9, AROCLOR, Method: PREINCUBATION
  mutagenic call: active; positive
Test System: AMES SALMONELLA TYPHIMURIUM, Strain/Indicator: TA98, Metabolic Activation: RAT, LIVER, S-9, N-BENZYLIMIDAZOLE, Method: PREINCUBATION
  mutagenic call: active; positive
Test System: AMES SALMONELLA TYPHIMURIUM, Strain/Indicator: TA98, Metabolic Activation: RAT, LIVER, S-9, PHENOBARBITONE, Method: PREINCUBATION
  mutagenic call: active; positive
Test System: AMES SALMONELLA TYPHIMURIUM, Strain/Indicator: TA98, Metabolic Activation: RAT, LIVER, S-9, Method: STANDARD PLATE
  mutagenic call: active; positive
Test System: AMES SALMONELLA TYPHIMURIUM, Strain/Indicator: TA98, Method: STANDARD PLATE
  mutagenic call: active; positive
Test System: AMES SALMONELLA TYPHIMURIUM, Strain/Indicator: TA100, Metabolic Activation: NONE, Method: PREINCUBATION
  mutagenic call: inactive; negative
Test System: AMES SALMONELLA TYPHIMURIUM, Strain/Indicator: TA100, Metabolic Activation: RAT, LIVER, S-9, AROCLOR 1254, Method: PREINCUBATION
  mutagenic call: active; positive
Test System: AMES SALMONELLA TYPHIMURIUM, Strain/Indicator: YG1019, Metabolic Activation: RAT LIVER S-9, AROCLOR, Method: PREINCUBATION
  mutagenic call: active; positive
Test System: AMES SALMONELLA TYPHIMURIUM, Strain/Indicator: YG1024, Metabolic Activation: RAT, LIVER, S-9, AROCLOR, Method: PREINCUBATION
  mutagenic call: active; positive
Test System: CHINESE HAMSTER V-79, Strain/Indicator: V-79/6-THIOGUANINE, Metabolic Activation: RAT, LIVER, HEPATOCYTES, AROCLOR 1254
  mutagenic call: active; positive
Test System: CHINESE HAMSTER V-79, Strain/Indicator: V-79/6-THIOGUANINE, Metabolic Activation: RAT, LIVER, S-9, AROCLOR 1254
  mutagenic call: inactive; negative
Test System: E. COLI, Strain/Indicator: CC109, Metabolic Activation: RAT, LIVER, S-9, AROCLOR 1254, Method: STANDARD PLATE
  mutagenic call: active; positive
Test System: E. COLI, Strain/Indicator: CC110, Metabolic Activation: RAT, LIVER, S-9, AROCLOR 1254, Method: STANDARD PLATE
  mutagenic call: active; positive
Test System: E. COLI, Strain/Indicator: DJ3109, Metabolic Activation: RAT, LIVER, S-9, AROCLOR 1254, Method: STANDARD PLATE
  mutagenic call: active; positive
Test System: E. COLI, Strain/Indicator: DJ3110, Metabolic Activation: RAT, LIVER, S-9, AROCLOR 1254, Method: STANDARD PLATE
  mutagenic call: active; positive
Test System: E. COLI, Strain/Indicator: DJ3209, Metabolic Activation: RAT, LIVER, S-9, AROCLOR 1254, Method: STANDARD PLATE
  mutagenic call: active; positive
Test System: E. COLI, Strain/Indicator: DJ3210, Metabolic Activation: RAT, LIVER, S-9, AROCLOR 1254, Method: STANDARD PLATE
  mutagenic call: active; positive
Test System: UDS HAMSTER HEPATOCYTES, Strain/Indicator: THY INCORP, Metabolic Activation: NONE, Method: LIQUID SCINTILLATION COUNTING
  mutagenic call: active; positive
Test System: UDS HUMAN HEPATOCYTES, Strain/Indicator: THY INCORP, Metabolic Activation: NONE, Method: AUTORADIOGRAPHY
  mutagenic call: active; positive
Test System: UDS MOUSE HEPATOCYTES, Strain/Indicator: THY INCORP, Metabolic Activation: NONE, Method: AUTORADIOGRAPHY
  mutagenic call: active; positive
Test System: UDS RAT HEPATOCYTES, Strain/Indicator: THY INCORP, Metabolic Activation: NONE, Method: AUTORADIOGRAPHY
  mutagenic call: inactive; negative
Test System: UDS RAT HEPATOCYTES, Strain/Indicator: THY INCORP, Metabolic Activation: NONE, Method: LIQUID SCINTILLATION COUNTING
  mutagenic call: inactive; negative
